Laboratory results reported in US20260265230A1, “FLUORESCENT AND SELF-ASSEMBLING UREIDOPYRIMIDINONE CONJUGATES AND PREPARATION THEREOF” (COUNCIL OF SCIENTIFIC AND INDUSTRIAL RESEARCH AN INDIAN …, priority 2022, published 2026).

Assay: Fluorescent studies (absorption and emission spectra) in DMSO
Type: physicochemical
Settings: concentration 1×10^−5 M; for maximum absorption wavelength (λabs) / maximum emission wavelength (λems): FIG. 1
Source text: FIG. 1 represents absorption and emission spectra of (a) coumarin-UpyFlAA (6) and (b) hydroquinone-UPy-FlAA(10), in accordance with an implementation of the present disclosure.

| SMILES | fluorescence (relative fluorescence intensity) | maximum absorption wavelength (λabs) | maximum emission wavelength (λems) |
| --- | --- | --- | --- |
| CCN(CC)c1ccc2cc(-c3cc(=O)[nH]c(NC(=O)NCCCC[C@H](NC(=O)OC(C)(C)C)C(=O)O)n3)c(=O)oc2c1 [Compound 6, N2-(tert-butoxycarbonyl)-N6-((4-(7-(diethylamino)-2-oxo-2H-chromen-3-yl)-6-oxo-1,6-dihydropyrimidin-2-yl)carbamoyl)lysine] | high level of fluorescence | 437 nm | 487 nm |
| COc1ccc(OC)c(-c2cc(=O)nc(NC(=O)NCCCC[C@H](NC(=O)OC(C)(C)C)C(=O)O)[nH]2)c1 [Compound 10, N2-(tert-butoxycarbonyl)-N6-((6-(2,5-dimethoxyphenyl)-4-oxo-1,4-dihydropyrimidin-2-yl)carbamoyl)lysine] | high level of fluorescence | 310 nm | 421 nm |
